Positions of bridges follow the written chain, without caps; N, C: chain ends. No end group written: not given here.

Holding throughout (format): cell-based, human
One assay deals with hMSC cells. In words: Alkaline phosphatase (AP) in cells contacted with peptide-displaying clones (tertiary screen). The following applies: for induction of osteoblastic marker enzyme alkaline phosphatase: additional screening of clones. The procedure: A tertiary screen of the identified peptides was performed. The effect of each peptide on target cells was determined by measuring amounts of osteoblastic marker alkaline phosphatase (AP). Clonally purified individual isolates, or sibling pools of multiple isolates, were tested using the secondary and tertiary screens.
Individual preparations of each bacterial peptide-bearing clone to be tested were induced to express peptides, and were heat-devitalized in boiled water, to kill the peptide-displaying bacteria. Fifty microliters of heat-devitalized bacterial suspension was poured into each well of a 96-well plate containing agar, and the plate was centrifuged at 2000 rpm to embed bacteria in the surface of the agar.
Clones were further tested to quantify amount of stimulation of alkaline phosphatase (AP) activity in contacted cells. […] DNA from this clone that stimulated AP expression was isolated and was sequenced, and the DNA sequence was used to obtain amino acid sequence VFLRGNNSGGRS (SEQ ID NO: 2). This amino acid sequence appears not to have been previously reported.
Osteoinductive peptides with activity that stimulated osteoblasts include: VFLRGNNSGGRS (SEQ ID NO:2), GKIHRHRGQAVE (SEQ ID NO: 3), HIRQMPVRAGLS (SEQ ID NO: 4), RQGVGSNGXIQK (SEQ ID NO: 5), ESHCLLGISCVL (SEQ ID NO: 6), QQLQQNVILET (SEQ ID NO: 7), RSKLVEFRTTG (SEQ ID NO: 8), RNWRMSRRGGM (SEQ ID NO: 9), CVRGRGRMAGSV (SEQ ID NO: 10), ITRGELATVRRS (SEQ ID NO: 11), LRLGVGMGRTC (SEQ ID NO: 12), ERFAGNRNQLQ (SEQ ID NO: 13), GGLGSVGWYWA (SEQ ID NO: 14), GCGKERGRRALK (SEQ ID NO: 15), GQERLWAFRWVP (SEQ ID NO: 16), RGVLRVGTGRSE (SEQ ID NO: 17), ITRGELATVRRS (SEQ ID NO: 18), RPALRLGLIGPS (SEQ ID NO: 19), TRTSVDAPIRX (SEQ ID NO: 20), SKALRGVGSVAS (SEQ ID NO: 21), and RRGQDRGHEPK (SEQ ID NO: 22).

The test system of assay [1] is MG63 cells. In words: Cellular ATP in MG63 cells on streptavidin-coated wells treated with biotinylated peptide. The note with it: MG63 1,000 cells/well, 120 hours after seeding, 50-3200 pmole/well, FIG. 4, versus biotin only. The procedure:
(§1) Cell growth and osteogenic inducing potential of each of the preparations of the biotinylated linear and the cyclic peptides was determined. The osteogenic potential of each peptide was analyzed by quantifying cellular ATP and alkaline phosphatase (AP) activity of osteoblast cells.
(§2) Peptides were added to the wells in titrated amounts (50 pmole/well, 100 pmole/well, 200 pmole/well, 400 pmole/well, 800 pmole/well, 1600 pmole/well, or 3200 pmole/well) and were immobilized on streptavidin-coated plastic well plates (384 wells per plate). The biotin-binding capacity of the plates was 50 pmole/well. Each well was washed to remove unbound biotinylated peptides. […] MG63 cells (1,000 cells/well) were inoculated into each well.
(§3) ATP (RFU/well) was measured at each of 24 hours and 120 hours after cells were seeded, and alkaline phosphatase (AP, RFU standardized by cell number) activity was measured 120 hours after cells were seeded.

Assay [2] deals with MG63 cells. As to the kind of experiment: Alkaline phosphatase activity of MG63 cells on streptavidin-coated wells treated with biotinylated peptide. The following applies: MG63 1,000 cells/well, 120 hours after seeding, 50-3200 pmole/well, FIG. 5, versus biotin only. How it is done:
as §1, §2, §3

Consider “CVRGRGRMAGSV (The protein was designed and synthesized) [SEQ ID NO: 10]”, for which, in the assay on hMSC cells, the “induction of osteoblastic marker enzyme alkaline phosphatase” value (“induction” for short) is reported as “induced osteoblastic marker enzyme alkaline phosphatase”.

With “ERFAGNRNQLQ (The protein was designed and synthesized) [SEQ ID NO: 13]”, the “induction” value in the assay on hMSC cells is listed as “induced osteoblastic marker enzyme alkaline phosphatase”.

On to “ESHCLLGISCVL (The protein was designed and synthesized) [SEQ ID NO: 6, osteopontin-like peptide]”, for which the “induction” value in the assay with hMSC cells was “induced osteoblastic marker enzyme alkaline phosphatase”. Besides, the “cellular ATP amounts / cell growth, 120 hours” value with MG63 cells [1] was “induced cell growth”. For the same substance, the “alkaline phosphatase (AP) activity, 120 hours” value in the assay with MG63 cells [2] is recorded as “production of osteogenic marker AP”.

In the case of “GCGKERGRRALK (The protein was designed and synthesized) [SEQ ID NO: 15]”, in the assay with hMSC cells, the “induction” value is “induced osteoblastic marker enzyme alkaline phosphatase”.

In the case of “GEN/cyclic: biotinylated cyclic ESHCLLGISCVL (SEQ ID NO: 6), three mini-PEG repeats, synthesized by GEN (disulfide 4-10 (inferred); also: biotin, three mini-PEG repeats, attachment end not given here)”, the “cellular ATP amounts / cell growth, 120 hours” value in the assay with MG63 cells [1] was “stimulated ATP production and cellular growth”. In addition, the “alkaline phosphatase (AP) activity, 120 hours” value in the assay with MG63 cells [2] was “induced greater alkaline phosphatase activity than the controls”.

As to “GEN/linear: biotinylated linear ESHCLLGISCVL (SEQ ID NO: 6), three mini-PEG repeats, synthesized by GEN (cysteine pairing not given here; also: biotin, three mini-PEG repeats, attachment end not given here)”, the “cellular ATP amounts / cell growth, 120 hours” value is “stimulated ATP production and cellular growth” in the assay with MG63 cells [1]; “greater ATP amounts than those in wells treated with any of the other peptides” with MG63 cells [1] (listed as linear peptides synthesized by GEN). Besides, in the assay with MG63 cells [2], the “alkaline phosphatase (AP) activity, 120 hours” value is recorded as “induced greater alkaline phosphatase activity than the controls”.

Turning to “GGLGSVGWYWA (The protein was designed and synthesized) [SEQ ID NO: 14]”, in the assay with hMSC cells, the “induction” value is reported as “induced osteoblastic marker enzyme alkaline phosphatase”.

“GKIHRHRGQAVE (The protein was designed and synthesized) [SEQ ID NO: 3]”: in the assay on hMSC cells, the “induction” value is recorded as “induced osteoblastic marker enzyme alkaline phosphatase”.

For “GQERLWAFRWVP (The protein was designed and synthesized) [SEQ ID NO: 16]”, in the assay with hMSC cells, the “induction” value is “induced osteoblastic marker enzyme alkaline phosphatase”.

As to “HIRQMPVRAGLS (The protein was designed and synthesized) [SEQ ID NO: 4]”, the “induction” value in the assay with hMSC cells was “induced osteoblastic marker enzyme alkaline phosphatase”.

As for “ITRGELATVRRS (The protein was designed and synthesized) [SEQ ID NO: 11]”, the “induction” value in the assay on hMSC cells is on record as “induced osteoblastic marker enzyme alkaline phosphatase”.

Regarding “LRLGVGMGRTC (The protein was designed and synthesized) [SEQ ID NO: 12]”, the “induction” value in the assay on hMSC cells is listed as “induced osteoblastic marker enzyme alkaline phosphatase”.

Turning to “NEP/cyclic: biotinylated cyclic ESHCLLGISCVL (SEQ ID NO: 6), 15 atom-PEG, synthesized by NEP (disulfide 4-10 (inferred); also: biotin, 15 atom-PEG, attachment end not given here)”, the “cellular ATP amounts / cell growth, 120 hours” value in the assay on MG63 cells [1] is “stimulated ATP production and cellular growth”. In the assay on MG63 cells [2], the “alkaline phosphatase (AP) activity, 120 hours” value is recorded as “induced greater alkaline phosphatase activity than the controls”.

For “NEP/linear: biotinylated linear ESHCLLGISCVL (SEQ ID NO: 6), 15 atom-PEG, synthesized by NEP (cysteine pairing not given here; also: biotin, 15 atom-PEG, attachment end not given here)”, the “cellular ATP amounts / cell growth, 120 hours” value in the assay on MG63 cells [1] is “stimulated ATP production and cellular growth”. For the same substance, the “alkaline phosphatase (AP) activity, 120 hours” value with MG63 cells [2] was “induced greater alkaline phosphatase activity than the controls”.

Regarding “QQLQQNVILET (The protein was designed and synthesized) [SEQ ID NO: 7]”, the “induction” value in the assay with hMSC cells is on record as “induced osteoblastic marker enzyme alkaline phosphatase”.

Regarding “RGVLRVGTGRSE (The protein was designed and synthesized) [SEQ ID NO: 17]”, the “induction” value in the assay with hMSC cells was “induced osteoblastic marker enzyme alkaline phosphatase”.

With “RNWRMSRRGGM (The protein was designed and synthesized) [SEQ ID NO: 9]”, the “induction” value with hMSC cells is given as “induced osteoblastic marker enzyme alkaline phosphatase”.

“RPALRLGLIGPS (The protein was designed and synthesized) [SEQ ID NO: 19]”: the “induction” value with hMSC cells was “induced osteoblastic marker enzyme alkaline phosphatase”.

Turning to RQGVGSNGXIQK [SEQ ID NO: 5], the “induction” value in the assay with hMSC cells is given as “induced osteoblastic marker enzyme alkaline phosphatase”.

For “RRGQDRGHEPK (The protein was designed and synthesized) [SEQ ID NO: 22]”, the “induction” value in the assay on hMSC cells is “induced osteoblastic marker enzyme alkaline phosphatase”.

On to “RSKLVEFRTTG (The protein was designed and synthesized) [SEQ ID NO: 8]”, for which the “induction” value in the assay with hMSC cells is listed as “induced osteoblastic marker enzyme alkaline phosphatase”.

With “SKALRGVGSVAS (The protein was designed and synthesized) [SEQ ID NO: 21]”, in the assay on hMSC cells, the “induction” value is given as “induced osteoblastic marker enzyme alkaline phosphatase”.

For TRTSVDAPIRX [SEQ ID NO: 20], the “induction” value with hMSC cells is reported as “induced osteoblastic marker enzyme alkaline phosphatase”.

On to “VFLRGNNSGGRS (The protein was designed and synthesized) [SEQ ID NO: 2]”, for which the “induction” value in the assay with hMSC cells is “induced osteoblastic marker enzyme alkaline phosphatase”. Besides, in the assay with hMSC cells (clone-contacted cells), the “AP expression compared with control cells contacted with empty vector” value is reported as “an order of magnitude more AP expression”.

Values taken from US8815807B2, “Peptides and peptide compositions having osteoinductive activity” (President and Fellows of Harvard College, priority 2008, dated 2014).
